From ChEMBL document CHEMBL1201862, “PubChem BioAssay data set” (2004)
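Grown in 96-well plates, cells were treated for 48 hours with each compound at five concentrations. Insufficient inhibition: endpoint recorded as highest concentration tested. GI50 is the concentration that inhibits growth by half.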 The source made the active and inactive calls. Cut-off read from the data, not from the text of the source: active = GI50 up to about 1.1 µM and inactive = higher.

Tests used:
Assay in all cases: growth of human tumour cells (NCI), 48 h
HT-29 = system: HT-29
CAKI-1 = system: CAKI-1
HOP-62 = system: HOP-62
UACC-257 = system: UACC-257
SNB-75 = system: SNB-75
SK-MEL-28 = system: SK-MEL-28
TK-10 = system: TK-10
U-251 = system: U-251
HOP-92 = system: HOP-92
KM12 = system: KM12
HCC 2998 = system: HCC 2998
M14 = system: M14
SK-OV-3 = system: SK-OV-3
NCI/ADR-RES = system: NCI/ADR-RES
SF-295 = system: SF-295
MOLT-4 = system: MOLT-4
LOX IMVI = system: LOX IMVI
A549 = system: A549
RXF 393 = system: RXF 393

SMILES | GI50 (HT-29) | GI50 (CAKI-1) | GI50 (HOP-62) | GI50 (UACC-257) | GI50 (SNB-75) | GI50 (SK-MEL-28) | GI50 (TK-10) | GI50 (U-251) | GI50 (HOP-92) | GI50 (KM12) | GI50 (HCC 2998) | GI50 (M14) | GI50 (SK-OV-3) | GI50 (NCI/ADR-RES) | GI50 (SF-295) | GI50 (MOLT-4) | GI50 (LOX IMVI) | GI50 (A549) | GI50 (RXF 393)
COc1cc(C2c3[nH]c4ccccc4c3[C@@H](Nc3ccc(F)cc3)[C@H]3COC(=O)N23)cc(OC)c1O (stereo not given in full) | 3.12 µM (inactive) | 0.828 µM (active) | 1.01 µM (active) | 3.77 µM (inactive) | 1.69 µM (inactive) | 2.01 µM (inactive) | 1.97 µM (inactive) | 1.45 µM (inactive) | 2.26 µM (inactive) | 1.91 µM (inactive) | 1.58 µM (inactive) | 2.02 µM (inactive) | 1.1 µM (active) | 8.13 µM (inactive) | 0.794 µM (active) | 0.287 µM (active) | 1.21 µM (inactive) | 0.465 µM (active) | 
O=C1C[C@@H](C(=O)OCc2ccccc2)NC(=O)C[C@@H](C(=O)OCc2ccccc2)NC(=O)C[C@@H](C(=O)OCc2ccccc2)N1 | > 100 µM (inactive) | > 100 µM (inactive) | 33.9 µM (inactive) | > 100 µM (inactive) | 1.06 µM (active) | > 100 µM (inactive) | 19.6 µM (inactive) | 12.1 µM (inactive) | 20.7 µM (inactive) | > 100 µM (inactive) | > 95.9 µM (inactive) | > 92.9 µM (inactive) | 20.8 µM (inactive) | > 100 µM (inactive) | 20 µM (inactive) | 4.15 µM (inactive) | > 100 µM (inactive) | > 100 µM (inactive) | 13.3 µM (inactive)
CN1C[C@H]2[C@@H](C1=O)[C@H](c1ccccc1)ON2C | > 100 µM (inactive) | > 100 µM (inactive) | > 100 µM (inactive) | > 100 µM (inactive) | > 100 µM (inactive) | > 100 µM (inactive) | > 100 µM (inactive) | > 100 µM (inactive) | 59.2 µM (inactive) |  | > 100 µM (inactive) | > 100 µM (inactive) | > 100 µM (inactive) | > 100 µM (inactive) | > 100 µM (inactive) | > 100 µM (inactive) | > 100 µM (inactive) | > 100 µM (inactive) | 
N#CSCC1COc2ccccc2O1 (stereo not given) | > 10 µM (inactive) | > 10 µM (inactive) | > 10 µM (inactive) |  | > 10 µM (inactive) | > 10 µM (inactive) | > 10 µM (inactive) | > 10 µM (inactive) |  | > 10 µM (inactive) | > 10 µM (inactive) | 8.39 µM (inactive) | > 10 µM (inactive) | > 10 µM (inactive) | > 10 µM (inactive) | 3.3 µM (inactive) | 3.78 µM (inactive) | > 10 µM (inactive) | > 10 µM (inactive)
CC1=C2C(=C[C@H]3[C@]4(C)CCCC(C)(C)[C@H]4CC[C@]34O[C@H]24)OC1=O | > 100 µM (inactive) |  | > 100 µM (inactive) | > 100 µM (inactive) | > 100 µM (inactive) | > 100 µM (inactive) | > 100 µM (inactive) | > 100 µM (inactive) | > 100 µM (inactive) | > 100 µM (inactive) | > 100 µM (inactive) | > 100 µM (inactive) | > 100 µM (inactive) | > 100 µM (inactive) | > 100 µM (inactive) | > 100 µM (inactive) |  | > 100 µM (inactive) | > 100 µM (inactive)
CN(CCO)CCC1COc2ccccc2O1 (stereo not given) | > 10 µM (inactive) | > 10 µM (inactive) | > 10 µM (inactive) |  | > 10 µM (inactive) | > 10 µM (inactive) | > 10 µM (inactive) | > 10 µM (inactive) |  | > 10 µM (inactive) | > 10 µM (inactive) | > 10 µM (inactive) | > 10 µM (inactive) | > 10 µM (inactive) | > 10 µM (inactive) | > 10 µM (inactive) | > 10 µM (inactive) | > 10 µM (inactive) | 7.98 µM (inactive)
